Read-outs that look alike come from different tables or passages of the source.
Legend:
[1] = tested on: E. coli strain ATCC 700928; test: Mouse UTI model, CK570 IU or IV: bacterial burden in kidneys, bladder, urine; assay type: in vivo, C3H/OuJ mice; conditions: each tissue, all timepoints
Excerpt: The vehicle used in this study was 1×TBS. […] C3H/OuJ female mice, aged approximately 8 weeks and weighing 21 to 24 grams, were used in this study. Mice were housed with 1 to 5 animals per cage and were provided food (5P76 Prolab isopro irradiated lab diet) and water ad libitum. […] Each mouse was then placed on a board, ventral side up, with the nose inserted into a nose cone supplying isoflurane. The lower abdomen was gently massaged to expel any urine in the bladder. […] For IV administration, mice were manually restrained in a restrainer device, and study treatment was administered via the lateral tail vein. […] For IU administration, the same method was used as for the original administration of E. coli. A dose volume of 50 μL was used for IU administration. […] All CFU data were log-transformed.

[2] = tested on: 88 urinary tract infection E. coli isolates; assay type: cell-based, Escherichia coli; conditions: for Host Range % on MDR Subset (n = 21), Combination: Antibiotic + LBP-EC01 v.2 / Host Range % on all Strains (n = 88), Combination: Antibiotic + LBP-EC01 v.2 / Host Range % on Beta-lactam-Resistant Subset (n = 31), Combination: Antibiotic + LBP-EC01 v.2: antibiotic combined with LBP-EC01 v.2; for Host Range % on all Strains (n = 88), Combination: Antibiotic + CK618 v.2: antibiotic at breakpoint concentration plus cocktail 1 × 10^6 PFU/ml per bacteriophage
Method: (§1) Phage cocktail CK618 was tested in combination with and alongside antibiotics against two isolate panels. The first assay used a panel of 88 contemporaneous urinary tract infection (UTI) isolates from North America, Europe, Latin America, and Asia. […] The second assay used a panel made up of a 300-strain clinical isolate panel (Table 14) with an additional 4 strains of interest. […] Four of the same SOC antibiotics tested against the 88-isolate panel were tested against this panel. The non-SOC antibiotics were not included due to their limited use in clinical settings, and nitrofurantoin was not included due to the low probability of resistance to this drug.
(§2) For both isolate panels, antibiotic concentrations tested were determined by using Clinical and Laboratory Standards Institute (CLSI) or European Committee on Antimicrobial Susceptibility Testing (EUCAST) breakpoints at concentrations that kill susceptible isolates but allow intermediate or resistant isolates to grow in the standard AST microdilution assay (Table 17).
(§3) The composition of the proposed Phase 2 CRISPR-enhanced bacteriophage (CRISPR-phage, hereafter termed ‘crPhage’) cocktail (CK618) has been updated from the CK570 to include six bacteriophages as compared to three bacteriophages in CK570. Bacteriophage cocktail CK618, was prepared such that all bacteriophages had equivalent titers in the final cocktail. The cocktail was then mixed with bacteria to obtain final titers of 1×10^6 plaque-forming unit (PFU)/mL/phage for the cocktail and 1×10^5 colony-forming unit (CFU)/mL for the bacteria, resulting in a multiplicity of infection (MOI) of 10 for each bacteriophage in a sample. Briefly, 5 μl of each sample (CK618 alone, CK618 and antibiotics, antibiotics alone, or medium alone) was added to 5 μl of optical density (OD)-normalized bacterial isolate and 40 μl LB medium. Reactions were incubated at 37° C. with shaking and OD measurements were taken each hour for 20 hours.
(§4) Host range percentage is the percent of isolates that responded to treatment of antibiotics or CK618. In the case of the 88-isolate panel, results were analyzed on the complete panel as well as the subset of classified as multidrug-resistant (MDR) (n=21) and beta-lactam-resistant (n=31).
(§5) The first assay used a panel of 88 contemporaneous isolates. Twenty-one of those strains are classified as MDR, with resistance to 3 or more antibiotic classes. […] The second assay used the panel made up of a 300-strain clinical isolate panel with an additional 4 strains of interest.
(§6) Antibiotic concentrations tested were determined by using CLSI or EUCAST breakpoints at concentrations that kill susceptible strains but allow intermediate or resistant strains to grow in the standard AST microdilution assay (Table 27). LBP-EC01 v.2 was combined with bacteria resulting in a MO of 10 for each bacteriophage in a sample. In the case of the 88-isolate panel, results were analyzed on the complete panel as well as the subset of isolates classified as multidrug-resistant (MDR) (n=21) and beta-lactam-resistant (n=31).

[3] = tested on: 304 E. coli clinical isolates; assay type: cell-based, Escherichia coli
Method: as §1, §2, §3, §4, §5, §6

[4] = tested on: E. coli strains b3411 and b3370; test: In vitro CFU reduction by purified colicins; assay type: cell-based, Escherichia coli; conditions: ~30 min, then regrowth
Method: Colicins produced an immediate significant reduction of CFU/mL (˜30 min) after adding colicins before bacterial regrowth.

[5] = tested on: E. coli strain b3370; test: Neutropenic thigh model, Colicin 10 and Colicin U (Study 23-END-056); assay type: in vivo, ICR mouse; conditions: 4 h and 7 h; 295 nM Colicin 10, 29.5 nM Colicin U
Method: Study 23-END-056 was performed to evaluate the statistical difference between Control and Colicin treatment and sustained reduction of bacteria burden to LOD with colicin treatment in an ICR mouse model (FIG. 51). Specifically, the efficacy of 29.5 nM Colicin U, and combination therapy of both of 295 nM Colicin 10 & 29.5 nM Colicin U were evaluated in an ICR mouse model compared with no treatment (Table 40 and FIG. 52). In these experiments, due to high endotoxin, Colicin U was diluted 1:10 more than Colicin 10. At the 4 h and 7 h time points, treatment with 295 nM Colicin 10 lowered CFU, whereas no change was seen after treatment with 29.5 Colicin U.

[6] = 88-isolate panel, listed as Fosfomycin 8
[7] = 88-isolate panel, listed as Fosfomycin 64

Molecule: O=C(O)c1cn(C2CC2)c2cc(N3CCNCC3)c(F)cc2c1=O [Ciprofloxacin]
- bacterial burden, positive control [1]: significantly reduced bacterial burden to the LOD in each tissue

Molecule: C[C@@H]1O[C@@H]1P(=O)(O)O [Fosfomycin]
- Host Range % on MDR Subset (n = 21), Combination: Antibiotic + LBP-EC01 v.2 ([2]; 88-isolate panel, MDR subset, listed as Fosfomycin 8): 95.2%
- Host Range % on MDR Subset (n = 21), Combination: Antibiotic + LBP-EC01 v.2 ([2]; 88-isolate panel, MDR subset, listed as Fosfomycin 64): 100.0%
- Host Range % on MDR Subset (n = 21), Single agent treatment ([2]; 88-isolate panel, MDR subset, single agent, listed as Fosfomycin 8): 90.5%
- Host Range % on MDR Subset (n = 21), Single agent treatment ([2]; 88-isolate panel, MDR subset, single agent, listed as Fosfomycin 64): 96.8%
- Host Range % on all Strains (n = 88), Combination: Antibiotic + LBP-EC01 v.2 ([2]; 88-isolate panel, all strains, listed as Fosfomycin 8): 93.9%
- Host Range % on all Strains (n = 88), Combination: Antibiotic + LBP-EC01 v.2 ([2]; 88-isolate panel, all strains, listed as Fosfomycin 64): 98.5%
- Host Range % on all Strains (n = 88), Single agent treatment ([2]; 88-isolate panel, all strains, single agent, listed as Fosfomycin 8): 85.2%
- Host Range % on all Strains (n = 88), Single agent treatment ([2]; 88-isolate panel, all strains, single agent, listed as Fosfomycin 64): 93.2%
- Host Range % on Beta-lactam-Resistant Subset (n = 31), Combination: Antibiotic + LBP-EC01 v.2 ([2]; 88-isolate panel, beta-lactam-resistant subset, listed as Fosfomycin 8): 94.6%
- Host Range % on Beta-lactam-Resistant Subset (n = 31), Combination: Antibiotic + LBP-EC01 v.2 ([2]; 88-isolate panel, beta-lactam-resistant subset, listed as Fosfomycin 64): 100.0%
- Host Range % on Beta-lactam-Resistant Subset (n = 31), Single agent treatment ([2]; 88-isolate panel, beta-lactam-resistant subset, single agent, listed as Fosfomycin 8): 87.1%
- Host Range % on Beta-lactam-Resistant Subset (n = 31), Single agent treatment ([2]; 88-isolate panel, beta-lactam-resistant subset, single agent, listed as Fosfomycin 64): 95.7%
- Host Range % on Beta-lactam-Resistant Subset (n = 31), Combination: Antibiotic + CK618 v.2 [2, 6]: 94.6%
- Host Range % on Beta-lactam-Resistant Subset (n = 31), Single agent treatment [2, 6]: 87.1%
- Host Range % on MDR Subset (n = 21), Combination: Antibiotic + CK618 v.2 [2, 6]: 95.2%
- Host Range % on MDR Subset (n = 21), Single agent treatment [2, 6]: 90.5%
- Host Range % on Beta-lactam-Resistant Subset (n = 31), Combination: Antibiotic + CK618 v.2 [2, 7]: 100.0%
- Host Range % on Beta-lactam-Resistant Subset (n = 31), Single agent treatment [2, 7]: 95.7%
- Host Range % on MDR Subset (n = 21), Combination: Antibiotic + CK618 v.2 [2, 7]: 100.0%
- Host Range % on MDR Subset (n = 21), Single agent treatment [2, 7]: 96.8%
- Host Range % on all Strains (n = 88), Single agent treatment ([2]; antibiotic at breakpoint concentration (Table 17), cocktail 1 × 10^6 PFU/ml per bacteriophage, MOI 10, listed as Fosfomycin 8): 85.2%
- Host Range % on all Strains (n = 88), Single agent treatment ([2]; antibiotic at breakpoint concentration (Table 17), cocktail 1 × 10^6 PFU/ml per bacteriophage, MOI 10, listed as Fosfomycin 64): 93.2%
- Host Range % on all Strains (n = 88), Combination: Antibiotic + CK618 v.2 ([2]; listed as Fosfomycin 8): 93.9%
- Host Range % on all Strains (n = 88), Combination: Antibiotic + CK618 v.2 ([2]; listed as Fosfomycin 64): 98.5%
- host range performance compared with antibiotics / combination (in words) ([3]; 88- and 304-isolate panels, all, MDR and beta-lactam-resistant strains): strong activity across all strains
- Host range % on MDR subset (n = 93), Combination: Antibiotic + LBP-CK618 ([3]; 304-isolate panel): 96.8%
- Host range % on MDR subset (n = 93), Single agent treatment ([3]; 304-isolate panel): 83.9%
- Host range % on beta-lactam-resistant subset (n = 91), Combination: Antibiotic + LBP-CK618 ([3]; 304-isolate panel): 96.7%
- Host range % on beta-lactam-resistant subset (n = 91), Single agent treatment ([3]; 304-isolate panel): 86.8%
- Host Range % on MDR Subset (n = 93), Combination Antibiotic + LBP-EC01 v.2 ([3]; 304-isolate panel, MDR subset, antibiotic combined with LBP-EC01 v.2): 96.8%
- Host Range % on all Strains (n = 304), Combination: Antibiotic + LBP-EC01 v.2 ([3]; 304-isolate panel, all strains, antibiotic combined with LBP-EC01 v.2): 97.0%
- Host Range % on all Strains (n = 304), Single agent treatment ([3]; 304-isolate panel, all strains, single agent): 87.5%
- Host Range % on Beta-lactam-Resistant Subset (n = 91), Combination: Antibiotic + LBP-EC01 v.2 ([3]; 304-isolate panel, beta-lactam-resistant subset, antibiotic combined with LBP-EC01 v.2): 96.7%
- Host range % on beta-lactam-resistant subset (n = 91), Single agent treatment ([3]; 304-isolate panel, beta-lactam-resistant subset, single agent): 86.8%

B1: Colicin 10 (protein)
chain: MDKVTDNSPDVESTESTEGSFPTVGVDTGDTITATLATGTENVGGGGGAFGGASESSAAIHATAKWSTAQLKKHQAEQAARAAAAEAALAKAKSQRDALTQRLKDIVNDALRANAARSPSVTDLAHANNMAMQAEAERLRLAKAEQKAREEAEAAEKALREAERQRDEIARQQAETAHLLAMAEAAEAEKNRQDSLDEEHRAVEVAEKKLAEAKAELAKAESDVQSKQAIVSRVAGELENAQKSVDVKVTGFPGWRDVQKKLERQLQDKKNEYSSVTNALNSAVSIRDAKKTEVQNAEIKLKEAKDALEKSQVKDSVDTMVGFYQYITEQYGEKYSRIAQDLAEKAKGSKFNSVDEALAAFEKYKNVLDKKFSKVDRDDIFNALESITYDEWAKHLEKISRALKVTGYLSFGYDVWDGTLKGLKTGDWKPLFVTLEKSAVDFGVAKIVALMFSFIVGAPLGFWGIAIITGIVSSYIGDDELNKLNELLGI
modifications: Colicin 10
- CFU reduction after adding colicins [4]: CFU reduction was observed
- CFU in mouse thigh compared with no treatment [5]: lowered CFU

B2: Colicin U (protein)
chain: MPGFNYGGHGDGTGWSSERGDGPAPGGGMQGNGGGHSGNNDSGSNSVSQQISAIQNDQKLKQKVVNMLIAARKMNPDAKMILGSIAPSGVMQVTIEGVTSTQARQLGLGGLVMGYNASGVIGAVGEIDTGHRLNASGASTPGSETSVDSFVNGQKPAEEWHAVAKDSWTGAGPVNTGLVNNAIKSVRIIKKGYVTGVLTPEEVMNKAEYKAMRQAFDSLPLAKQGEAVRQIVAAWSLAYQDFPVNLKKEMGRVTERIVDAINLALILNQTESRLSESQKNVDVANQIISDTVKAINDVNKKIAEKRNQQVSLTDLMNKKQKEVEDLKKIFKNHSYHRIRDAQREYDDARNKYALLASDINALQAQVSGLTARKQQAEQNKAAAEKAKADAAAKAAAEKAAAEAKAKAEAEKARKEAEEKANDEKAVLTKASEIIISVGDKAGEYLGDKYKVLSREIADNIKNFQGKTIRSYDEAMASVNKLMANPDLKINAADRDAIVNAWKAFDAEDMGNKFAALGKTFKAADYVMKANNVREKSIEGYQTGNWGPLMLEIESWVLSGIASAVALSFFSAIFGTFAMLGVFSTSLAGILAVILAGLVGALIDDNFVDKLNNEIIRPAY
modifications: Colicin U
- CFU reduction after adding colicins [4]: CFU reduction was observed
- CFU in mouse thigh compared with no treatment [5]: no change
